How the values were obtained:
[1] = biological target: T1, rhesus (Macacca Mulatta) H3 receptor (Macaca mulatta, UniProt Q865E1); assay: Rhesus H3 radioligand binding assay ([3H]-methylhistamine displacement, WGA SPA beads); parameters: species or system rhesus monkey (Macacca Mulatta); details: [3H]-methylhistamine 2 nM; membranes of Flp-In T-REx 293 cells expressing rhesus H3; Cheng-Prusoff
T1 construct: pcDNA5/FRT/TO (Invitrogen) containing the rhesus monkey (Macacca Mulatta) 445 amino acid H3 receptor
Method: (§1) Rhesus H3 membranes were prepared from the Flp-In T-REx 293 Cell Line (Invitrogen) stably transfected with pcDNA5/FRT/TO (Invitrogen) containing the rhesus monkey (Macacca Mulatta) 445 amino acid H3 receptor. (Genbank #AY231164). Stably transfected cultures were amplified in tissue culture flasks by standard tissue culture methods and induced to express rhesus H3 by exposure to 500 ng/ml tetracycline (Cellgro) for 24 hours. After induction, cells were dissociated from flasks utilizing Cell Stripper (Cellgro). Cells were centrifuged (1K×g, 5 min) and pellet frozen in an ethanol-dry ice bath to disrupt cell membranes. Frozen cell pellet was re-suspended in 5 mM HEPES (pH 7.4, Invitrogen) at 10 ml/1000 cm2 of harvested cells. The cell suspension was drawn through an 18 gauge needle (2-3×) followed by a 23 gauge needle (2-3×) to further disrupt cell membranes. The cell suspension was centrifuged (40K×g, 30 min). Cell membrane pellet was re-suspended in 5 mM HEPES (pH 7.4, Invitrogen) at a final protein concentration of 10 mg/ml. Rhesus H3 membranes were stored under liquid nitrogen prior to use in [3H]-Methylhistamine and GTP S radioligand binding assays.
Rhesus H3 radioligand binding assay was performed using rhesus H3 receptor membranes (prepared as described above), [3H]-Methylhistamine (Perkin Elmer) and WGA SPA beads (wheat germ agglutinin scintillation proximity assay) beads (Amersham). The assay was performed in 96-well Opti-Plates (Packard). Each reaction contained 50 μl rhesus H3 membranes (20-30 μg total protein), 50 μl WGA SPA beads (0.1 μg) and 50 μl of 83 Ci/mmol [^3H]-Methylhistamine (final concentration 2 nM) and 50 μl of tested compound. The compounds of this invention and/or vehicle were diluted with binding buffer from 10 mM DMSO stocks. Assay plates were sealed with TopSeal (Perkin Elmer) and mixed on shaker (25° C., 1 hour). Assay plates were read on TopCount scintillation counter (Packard). Results were analyzed by Hill transformation and Ki values were determined by Cheng-Prusoff equation.

rhesus H3 receptor = assay: GTPγS radioligand binding assay: inhibition of rhesus H3 constitutive functional activity in cell membranes (inverse agonism); type: biochemical, rhesus monkey (Macacca Mulatta); parameters: concentration or dose not given beside the values; details: negative value = below basal level
Method: as §1

T1 sequence (Q865E1 1-445): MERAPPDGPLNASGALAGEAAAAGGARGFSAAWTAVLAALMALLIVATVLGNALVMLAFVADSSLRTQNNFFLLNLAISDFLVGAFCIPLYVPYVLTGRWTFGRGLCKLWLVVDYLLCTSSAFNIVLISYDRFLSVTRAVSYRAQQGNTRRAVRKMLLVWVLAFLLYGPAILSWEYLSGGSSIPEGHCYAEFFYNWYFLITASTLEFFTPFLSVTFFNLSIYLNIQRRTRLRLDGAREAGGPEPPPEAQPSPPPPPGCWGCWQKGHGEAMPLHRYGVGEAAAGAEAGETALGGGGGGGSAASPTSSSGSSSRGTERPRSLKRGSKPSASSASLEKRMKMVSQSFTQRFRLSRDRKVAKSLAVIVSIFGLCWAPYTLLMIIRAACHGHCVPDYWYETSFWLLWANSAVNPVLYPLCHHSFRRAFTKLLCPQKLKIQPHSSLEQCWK

SMILES	Ki [1] [nM]	Inverse Agonism: % inhibition of Basal GTPγS binding in Rhesus H3 (rhesus H3 receptor) [%]
Cc1cc(N2CC[C@H](N3CCC[C@@H]3C)C2)ccc1N1CCC2(CCOCC2)C1=O [Example 1, 2-[2-Methyl-4-((2S,3′S)-2-methyl-[1,3′]bipyrrolidinyl-1′-yl)-phenyl]-8-oxa-2-aza-spiro[4.5]decan-1-one]	0.93	−25
Cc1cc(N2CC[C@H](N3CCC[C@@H]3C)C2)ccc1N1CCCC2(CCOCC2)C1=O [Example 2, 2-[2-Methyl-4-((2S,3′S)-2-methyl-[1,3′]bipyrrolidinyl-1′-yl)-phenyl]-9-oxa-2-aza-spiro[5.5]undecan-1-one]	0.38	−9
C[C@H]1CCCN1[C@H]1CCN(c2ccc(N3CCC4(CCOCC4)C3=O)cc2)C1 [Example 3, 2-[4-((2S,3′S)-2-Methyl-[1,3′]bipyrrolidinyl-1′-yl)-phenyl]-8-oxa-2-aza-spiro[4.5]decan-1-one]	0.63	−26
C[C@H]1CCCN1[C@H]1CCN(c2ccc(N3CCC4(CCOCC4)C3=O)cc2F)C1 [Example 4, 2-[3-Fluoro-4-((2S,3′S)-2-methyl-[1,3′]bipyrrolidinyl-1′-yl)-phenyl]-8-oxa-2-aza-spiro[4.5]decan-1-one]	2.1	−31
Cc1cc(N2CCC(N3CCC[C@@H]3C)CC2)ccc1N1CCC2(CCOCC2)C1=O [Example 5, 2-{2-Methyl-4-[4-((2S,3′S)-2-methyl-pyrrolidin-1-yl)-piperidin-1-yl]-phenyl}-8-oxa-2-aza-spiro[4.5]decan-1-one]	0.7	−11
Cc1cc(N2CC[C@H](N3CCC[C@H]3C)C2)ccc1N1CCC2(CCOCC2)C1=O [Example 6]	38	−36
CCC1CCCN1C1CCN(c2ccc(N3CCC4(CCOCC4)C3=O)c(F)c2)C1 (centres unmarked) [Example 7, 2-[4-(2-Ethyl-[1,3′]bipyrrolidinyl-1′-yl)-2-fluoro-phenyl]-8-oxa-2-aza-spiro[4.5]decan-1-one]	5.2	−35
CC(C)C1CCCN1C1CCN(c2ccc(N3CCC4(CCOCC4)C3=O)c(F)c2)C1 (centres unmarked) [Example 8, 2-[2-Fluoro-4-(2-isopropyl-[1,3′]bipyrrolidinyl-1′-yl)-phenyl]-8-oxa-2-aza-spiro[4.5]decan-1-one]	76	−22
CCCC1CCCN1C1CCN(c2ccc(N3CCC4(CCOCC4)C3=O)c(F)c2)C1 (centres unmarked) [Example 9, 2-[2-Fluoro-4-(2-propyl-[1,3′]bipyrrolidinyl-1′-yl)-phenyl]-8-oxa-2-aza-spiro[4.5]decan-1-one]	170	−30
C[C@H]1CCCN1C1CCN(c2ccc(N3CCC4(CCOCC4)C3=O)c(F)c2)CC1 [Example 10, 2-{2-Fluoro-4-[4-((2S,3′S)-2-methyl-pyrrolidin-1-yl)piperidin-1-yl]-phenyl}-8-oxa-2-aza-spiro[4.5]decan-1-one]	0.16	−33
C[C@H]1CCCN1[C@H]1CCN(c2ccc(N3CCC4(CCOCC4)C3=O)c(F)c2)C1 [Example 11, 2-[2-Fluoro-4-((2S,3′S)-2-methyl-[1,3′]bipyrrolidinyl-1′-yl)-phenyl]-8-oxa-2-aza-spiro[4.5]decan-1-one]	0.45	−11
C[C@H]1CCCCN1C1CCN(c2ccc(N3CCC4(CCOCC4)C3=O)c(F)c2)CC1 [Example 12, 2-[2-Fluoro-4-((2S,3′S)-2-methyl-[1,4]bipiperidinyl-1′-yl)-phenyl]-8-oxa-2-aza-spiro[4.5]decan-1-one]	0.45	−22
CC(C)C1CCCN1C1CCN(c2ccc(N3CCC4(CCOCC4)C3=O)cc2)CC1 (centres unmarked) [Example 13, 2-{4-[4-(2-Isopropyl-pyrrolidin-1-yl)-piperidin-1-yl]-phenyl}-8-oxa-2-aza-spiro[4.5]decan-1-one]	16	−22
CCCC1CCCN1C1CCN(c2ccc(N3CCC4(CCOCC4)C3=O)cc2)CC1 (centres unmarked) [Example 14, 2-{4-[4-(2-Propyl-pyrrolidin-1-yl)-piperidin-1-yl]-phenyl}-8-oxa-2-aza-spiro[4.5]decan-1-one]	13	−33
COCC1CCCN1C1CCN(c2ccc(N3CCC4(CCOCC4)C3=O)cc2)C1 (centres unmarked) [Example 15, 2-[4-(2-Methoxymethyl-[1,3′]bipyrrolidinyl-1′-yl)-phenyl]-8-oxa-2-aza-spiro[4.5]decan-1-one]	190	−26
C[C@H]1CCCN1C1CCN(c2ccc(N3CCC4(CCOCC4)C3=O)cc2)CC1 [Example 16, 2-{4-[4-((2S,3′S)-2-Methyl-pyrrolidin-1-yl)-piperidin-1-yl]-phenyl}-8-oxa-2-aza-spiro[4.5]decan-1-one]	0.52	−29
C[C@H]1CCCN1[C@H]1CCN(c2ccc(N3CCCC4(CCOCC4)C3=O)cc2F)C1 [Example 17, 2-[3-Fluoro-4-(2-methyl-[1,3′]bipyrrolidinyl-1′-yl)-phenyl]-9-oxa-2-aza-spiro[5.5]undecan-1-one]	2.5	−16
CCC1CCCN1C1CCN(c2ccc(N3CCC4(CCOCC4)C3=O)c(C(F)(F)F)c2)CC1 (centres unmarked) [Example 18, 2-{4-[4-(2-Ethyl-pyrrolidin-1-yl)-piperidin-1-yl]-2-trifluoromethyl-phenyl}-8-oxa-2-aza-spiro[4.5]decan-1-one]	4.3	−35
CC(C)C1CCCN1C1CCN(c2ccc(N3CCC4(CCOCC4)C3=O)c(C(F)(F)F)c2)CC1 (centres unmarked) [Example 19, 2-{4-[4-(2-Isopropyl-pyrrolidin-1-yl)-piperidin-1-yl]-2-trifluoromethyl-phenyl}-8-oxa-2-aza-spiro[4.5]decan-1-one]	100	−8
CCCC1CCCN1C1CCN(c2ccc(N3CCC4(CCOCC4)C3=O)c(C(F)(F)F)c2)C1 (centres unmarked) [Example 20, 2-[4-(2-Propyl-[1,3′]bipyrrolidinyl-1′-yl)-2-trifluoromethyl-phenyl]-8-oxa-2-aza-spiro[4.5]decan-1-one]	650	−12
C[C@H]1CCCN1C1CCN(c2ccc(N3CCC4(CCOCC4)C3=O)c(C(F)(F)F)c2)CC1 [Example 21, 2-{4-[4-((2S,3′S)-2-Methyl-pyrrolidin-1-yl)-piperidin-1-yl]-2-trifluoromethyl-phenyl}-8-oxa-2-aza-spiro[4.5]decan-1-one]	0.42	−19
C[C@H]1CCCN1[C@H]1CCN(c2ccc(N3CCC4(CCOCC4)C3=O)c(C(F)(F)F)c2)C1 [Example 22, 2-[4-((2S,3′S)-2-Methyl-[1,3′]bipyrrolidinyl-1′-yl)-2-trifluoromethyl-phenyl]-8-oxa-2-aza-spiro[4.5]decan-1-one]	8.6	−21
C[C@H]1CCCCN1C1CCN(c2ccc(N3CCC4(CCOCC4)C3=O)c(C(F)(F)F)c2)CC1 [Example 23, 2-[4-((2S,3′S)-2-Methyl-[1,4]bipiperidinyl-1′-yl)-2-trifluoromethyl-phenyl]-8-oxa-2-aza-spiro[4.5]decan-1-one]	1.5	−29
CCCC1CCCN1C1CCN(c2ccc(N3CCC4(CCOCC4)C3=O)c(CC)c2)CC1 (centres unmarked) [Example 24, 2-{2-Ethyl-4-[4-(2-propyl-pyrrolidin-1-yl)-piperidin-1-yl]-phenyl}-8-oxa-2-aza-spiro[4.5]decan-1-one]	18	−18
CCc1cc(N2CCC(N3CCCC3COC)CC2)ccc1N1CCC2(CCOCC2)C1=O (centres unmarked) [Example 25, 2-{2-Ethyl-4-[4-(2-methoxymethyl-pyrrolidin-1-yl)piperidin-1-yl]-phenyl}-8-oxa-2-aza-spiro[4.5]decan-1-one]	4.9	−13
CCc1cc(N2CCC(N3CCC[C@@H]3C)C2)ccc1N1CCC2(CCOCC2)C1=O (some centres unmarked) [Example 26]	0.13	–
C[C@H]1CCCN1[C@H]1CCN(c2ccc(N3CCCC4(CCOCC4)C3=O)c(F)c2)C1 [Example 27, 2-[2-Fluoro-4-((2S,3′S)-2-methyl-[1,3′]bipyrrolidinyl-1′-yl)-phenyl]-9-oxa-2-aza-spiro[5.5]undecan-1-one]	0.7	−20
